Where a SMILES comes first, the peptide text is derived from it.
Organism: Bos taurus
Assay: Electromyographic activity is measured as mean of the ratio of the height of the muscle action potential generated by the tenth impulse to the initial impulse in bovine thymus extracts at 10 mg
Type: functional, Muscle tissue

Compound	Mean
CC(C)[C@H](/N=C(\S)[C@H](CC(=O)O)NC(=O)[C@H](CCCCN)NC(=O)[C@@H](N)CCCN=C(N)N)C(=O)N[C@@H](Cc1ccc(O)cc1)C(=O)O	0.89
CC(C)[C@H](NC(=O)[C@H](CC(=O)O)NC(=O)[C@H](CCCCN)/N=C(\S)[C@@H](N)CCCN=C(N)N)C(=O)N[C@@H](Cc1ccc(O)cc1)C(=O)O	0.85
CC(C)[C@H](NC(=O)[C@H](CC(=O)O)/N=C(\S)[C@H](CCCCN)NC(=O)[C@@H](N)CCCN=C(N)N)C(=O)N[C@@H](Cc1ccc(O)cc1)C(=O)O	0.83
CC(C)[C@H](NC(=O)[C@H](CC(=O)O)NC(=O)[C@H](CCCCN)NC(=O)[C@@H](N)CCCN=C(N)N)/C(S)=N/[C@@H](Cc1ccc(O)cc1)C(=O)O	0.84
CC(C)[C@H](NC(=O)[C@H](CC(=O)O)NC(=O)[C@H](CCCCN)NC(=O)[C@@H](N)CCCN=C(N)N)C(=O)N[C@@H](Cc1ccc(O)cc1)C(=O)O [THYMOPENTIN] (H-RKDVY-OH)	0.83

— ChEMBL document CHEMBL1159166, “Chemoselective thioacylation of amino acids. Preparation of the four monothiothymopentin analogs and their biological activity” (1993)
